What was measured:
human RBC = settings: cited from earlier work
CHIP28 = molecular target: T1, CHIP28 (Homo sapiens, UniProt P29972); assay: Stopped-flow water flux (Pf) in CHIP28 proteoliposomes, effect of mercurial reagents; assay type: biochemical; settings: 1 mM
T1 construct: was comprised of AQP1 (the 28-kDa protein itself and the 35-60-kDa glycosylated protein); from tissue; host or cells: human erythrocytes (blood-bank units; small-scale purifications from freshly drawn whole blood)
T1 sequence (P29972 2-269 limits assumed): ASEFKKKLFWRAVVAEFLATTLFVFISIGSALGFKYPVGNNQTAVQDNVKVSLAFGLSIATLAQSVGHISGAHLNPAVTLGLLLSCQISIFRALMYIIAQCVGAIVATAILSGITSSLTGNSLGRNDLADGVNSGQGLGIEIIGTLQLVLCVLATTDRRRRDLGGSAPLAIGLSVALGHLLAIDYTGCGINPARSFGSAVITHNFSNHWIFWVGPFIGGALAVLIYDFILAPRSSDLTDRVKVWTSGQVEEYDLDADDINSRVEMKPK
Procedure: Purified AQP1 was stored overnight at 0° C. or frozen for several days at -80° C. prior to reconstitution. Reconstitution into proteoliposomes was carried out in a final volume of 1 ml containing 60-90 μg of purified AQP 1 protein in chromatography buffer, 9 mg of bath-sonicated E. coli phospholipid, 1.25% (w/v) octyl glucoside, and 50 mM Tris-HCl (pH 7.5). The mixture was briefly blended on a vortex mixer and incubated for 20 minutes on ice. Proteoliposomes (or liposomes prepared without protein) were formed at room temperature by rapidly injecting the mixture into 25 ml of buffer A [50 mM MOPS, pH 7.5, 150 mM N-methyl-D-glucamine (NMDG) chloride also containing 10-15 mM carboxyfluorescein, 1 mM dithiothreitol, and 0.5 mM PMSF]. For the measurement of proton permeability, proteoliposomes and liposomes were loaded with buffer B (5 mM MOPS, pH 7.5, 150 mM KCl, 0.5 mM carboxyfluorescein, 1 mM dithiothreitol, and 0.5 mM PMSF). The suspension was incubated for 20 minutes at room temperature. Proteoliposomes or liposomes were collected by centrifugation for 1 hour at 123000×g in a Beckman Type 42.1 rotor at 4° C. The pellet was resuspended in 8 ml of buffer A or B and then centrifuged for 1 hour at 152000×g in a Beckman Type 50 Ti rotor. Proteoliposomes or liposomes were resuspended in 300 μl of buffer A or B and stored at 4° C. for 16-24 hours. Typically 50% (54±6%, n=5) of the AQP1 protein and 70% of the phospholipid were recovered in proteoliposomes. The lipid to protein ratio was in the range of 120:1 to 219:1. These proteoliposomes have internal volumes of 1 μl/mg of phospholipid (Ambudkar and Maloney, 1986, J. Biol. Chem. 261:10079-10086). Protein and phospholipid were measured as described by Ambudkar & Maloney (J. Biol. Chem., 1986, 261:10079-10086).
(§1) Permeability measurements. Membrane permeability measurements (Pf) were measured by exposing AQP1 proteoliposomes or control liposomes to an osmotic gradient by rapid mixing with an equal volume of another solution containing buffer A plus sufficient sucrose to increase osmolality in the mixed solutions to a value 120% of that in the original solution. This was performed with a stopped-flow fluorometer (SF.17MV, Applied Photophysics, Leatherhead, U.K.) with a measured dead time of 0.7 ms. The excitation wavelength was set at 490±1.5 nm using a 150-W mercury-xenon arc lamp and monochromator (.function.3.4 grating monochromator, both from Applied Photophysics); the emission wavelength was >515 nm using a cut-on filter (Oriel Corp., Stratford, Conn.). Extravesicular carboxyfluorescein fluorescence was completely quenched using anti-fluorescein antibody (Harris et al., 1990, Am. J. Physiol. 259:F366-F371).
Within the range of osmolalities used in these experiments, the vesicles acted as perfect osmometers, and relative volume (absolute volume divided by initial volume) was linearly related to relative fluorescence (absolute fluorescence divided by initial fluorescence). The data obtained from 8 to 16 determinations was averaged and fit to single-exponential curves using 5 software provided by Applied Photophysics (Zeidel et al., 1992, Biochemistry 31:589-596). The fitting parameters were then used to determine Pf by first applying the linear conversion from relative fluorescence to relative volume and then iteratively solving the water permeability equation using MathCAD software (MathSoft, Cambridge, Mass.):
dV(t)/dt=(Pf)(SAV)(MVW)[(Cin /V(t))-Cout ] (1)
where V(t) is relative intravesicular volume as a function of time, Pf is osmotic water permeability in centimeters per second, SAV is the vesicle surface area to volume ratio, MVW is the molar volume of water (18 cm^3 /mol), and Cin and Cout are the initial concentrations of total solute inside and outside the vesicle, respectively (Zeidel et al., 1992, Biochemistry 31:589-596).
Effect of mercural reagents.

[1] = Stopped-flow water flux (Pf) in control liposomes, effect of mercurial reagents; assay type: biochemical; settings: 1 mM mercurial
Procedure: (§2) Purified AQP1 was stored overnight at 0° C. or frozen for several days at -80° C. prior to reconstitution. Reconstitution into proteoliposomes was carried out in a final volume of 1 ml containing 60-90 μg of purified AQP 1 protein in chromatography buffer, 9 mg of bath-sonicated E. coli phospholipid, 1.25% (w/v) octyl glucoside, and 50 mM Tris-HCl (pH 7.5). The mixture was briefly blended on a vortex mixer and incubated for 20 minutes on ice. […] Protein and phospholipid were measured as described by Ambudkar & Maloney (J. Biol. Chem., 1986, 261:10079-10086).
as §1, with “The excitation wavelength was set at 490±1.5 nm using a 150-W mercury-xenon arc lamp and monochromator (.function.3.4 grating monochromator, both from Applied Photophysics); the emission wavelength was >515 nm using a cut-on filter (Oriel Corp., Stratford, Conn.).” left out, “259:F366-F371). […]” for “259:F366-F371).”

[2] = Proton permeability (PH+) of CHIP28 proteoliposomes; assay type: biochemical; settings: 1 μM gramicidin A added to vesicles
Procedure: as §2, with “ice. Proteoliposomes (or liposomes prepared without protein) were formed at room temperature by rapidly injecting the mixture into 25 ml of buffer A [50 mM MOPS, pH 7.5, 150 mM N-methyl-D-glucamine (NMDG) chloride also containing 10-15 mM carboxyfluorescein, 1 mM dithiothreitol, and 0.5 mM PMSF].” for “ice.”
Exclusion of protons. […] Proton permeability was measured in CHIP28-containing liposomes containing 150 mM KCl and 5 mM MOPS, incorporating 1 μM valinomycin to prevent accumulation of protons from generating a positive intravesicular voltage. […] Over the pH range employed, fluorescence was linearly related to pH; extravesicular fluorescence was quenched with anti-fluorescein antibody. To ensure that increases in PH+ caused by CHIP28 could have been detected, 1 μM gramicidin A was added and increased PH+ by over 50-fold in each experiment.

Xenopus oocytes = assay: Two electrode voltage clamp of AQP5-expressing oocytes; assay type: cell-based; settings: electrophysiological studies, not shown
Procedure: Functional expression in Oocytes--A 1-kb BamHI fragment containing the 5' untranslated sequence and the entire open reading frame of the salivary cDNA was blunt-end-ligated into the BglII site of the Xenopus expression construct pXβG, which contains the HindIII-Pst insert of pSP64T in pBS II KS (Preston et al., 1992, Science, 256:385-387). Capped cRNA was synthesized in vitro after digestion with Xbal (Preston et al., 1993). Defolliculated stage V-VI Xenopus oocytes were injected with 50 nl of water or up to 5 ng of sample cRNAs and incubated for 3 days at 18° C. in 200 mosM modified Barth's buffer. The oocytes were transferred to 70 mosM modified Barth's buffer at 21° C.; oocyte swelling was monitored by videomicroscopy, and the coefficient of osmotic water permeability (Pf) was determined (Preston et al., 1992, 1993). Uptake of [^14 C]urea or [^14 C]glycerol was measured by incubating oocytes in 200 mosM Barth's buffer for 10-20 min at 21° C. followed by washing and SDS solubilization. No increase in ion conductance was found when control oocytes were compared to RNA-injected oocytes by two electrode voltage clamps (Preston et al, 1992).

In the case of `O=C(CCc1ccc(O)cc1)c1c(O)cc(O)cc1O` [Phloretin], the “urea flux in human RBC” value (human RBC) is listed as “inhibits urea flux” and the “water flux in human RBC” value (human RBC) is listed as “without altering water flux”.

For `O=S(=O)([O-])c1cc[c]([Hg][Cl])cc1` [pCMBS, p-chloromercuribenzene sulfonate], the “inhibition of Pf at 5 and 10 minutes” value (CHIP28; 37° C.) was “partial”, the “time to complete inhibition of Pf” value (CHIP28; 37° C.) was 20 to 30 min and the “Pf in CHIP28 proteoliposomes after mercurial” value (CHIP28; 37° C. (FIG. 12: pCMBS 25 minutes, HgCl2 3 minutes)) was 0.009±0.005 cm/s. For the same molecule, the “effect on the Pf of control liposomes” value [1] was “Neither pCMBS nor HgCl2 had any effect”.

In the case of gramicidin A, the “increase of PH+” value [2] is reported as “over 50 fold”.

B1: AQP5: 265-residue rat salivary water channel protein, 5th mammalian Aquaporin (protein, UniProt P47864 1-265, looked up)
Aquaporin-5: MKKEVCSLAFFKAVFAEFLATLIFVFFGLGSALKWPSALPTILQISIAFGLAIGTLAQALGPVSGGHINPAITLALLIGNQISLLRAVFYVAAQLVGAIAGAGILYWLAPLNARGNLAVNALNNNTTPGKAMVVELILTFQLALCIFSSTDSRRTSPVGSPALSIGLSVTLGHLVGIYFTGCSMNPARSFGPAVVMNRFSPSHWVFWVGPIVGAMLAAILYFYLLFPSSLSLHDRVAVVKGTYEPEEDWEDHREERKKTIELTAH
With B1 the membrane conductance (Xenopus oocytes) was “failed to reveal increased membrane conductance”.
